Patent US20150141251A1, “SPONTANEOUS SELF-FORMING MIXED SURFACTANT NANO-EMULSIONS FROM WATER INSOLUBLE PESTICIDES IN MIXED WATER MISCIBLE SOLVENTS” (priority 2012, published 2015)

Test system: Alfalfa weevil
Assay: Alfalfa weevil control on sprayed Alfalfa plots
Assay type: in vivo
Settings: Treatment No. 2, 0.022 lb active ingredient per acre
Text: The relative effect of pesticidal formulation of the present disclosure was studied for controlling Alfalfa weevil on Alfalfa:
To study the effect of formulation of the present disclosure, four 10×20 sq.ft plots of Alfalfa were set up for each treatment and 20 gal/acre test solution was sprayed with hand sprayer. Then 10 stems of Alfalfa per replication were collected randomly after 4 days and 7 days of treatment. The stems so collected were shaken into 1 gal white container. The evaluation results obtained are provided herein Table No. 5.

Compound: CC1(C)C(C=C(Cl)Cl)C1C(=O)OC(C#N)c1ccc(F)c(Oc2ccccc2)c1 (stereo not drawn) [Beta- CYFLUTHRIN]
- Alfalfa weevil larvae/10 stems (Mean ± SE) (4 Days after treatment): 0.3 ± 0.3 larvae/10 stems
- Alfalfa weevil larvae/10 stems (Mean ± SE) (7 Days after treatment): 0.0 ± 0.0 larvae/10 stems
